Reference: patent publication US8871934B2, “Fluorene compound and pharmaceutical use thereof” (Japan Tobacco Inc., priority 2008, dated 2014)
Where two headings read alike, the source gives them in different places.

Biological target: human PDHK2 (hPDHK2) (Homo sapiens (Human), UniProt Q15119)
Experiment: Inhibitory action of PDHK activity in vitro (kinase reaction, residual PDH activity measured)
Assay type: biochemical
Experimental: In the case of human PDHK2 (hPDHK2, Genbank Accession No. NM_002611), modified hPDHK2 cDNA wherein FLAG-Tag sequence is added to the N terminal by a polymerase linkage reaction was prepared based on hPDHK2 cDNA clone (pReceiver-M01/PDK2-GeneCopoeia), and cloned into a vector (pET17b-Novagen). The recombinant construct was transformed into Escherichia coli (DH5α-TOYOBO). The recombinant clones were identified, plasmid DNA was isolated and subjected to the DNA sequence analysis. One clone which had the expected nucleic acid sequence was selected for expression work.
During the assay, the hPDHK2 enzyme concentration was set to the minimal concentration at which PDH is inhibited the most.
0.05 U/mL PDH (porcine heart PDH complex, Sigma P7032) and 1.6 μg/mL hPDHK2 were mixed in a buffer (50 mmol/L 3-morpholinopropanesulfonic acid (pH 7.0), 20 mmol/L dipotassium hydrogen phosphate, 60 mmol/L potassium chloride, 2 mmol/L magnesium chloride, 0.4 mmol/L EDTA, and 0.2% Pluronic F-68, 2 mmol/L dithiothreitol), the mixture was incubated at 4° C. overnight to give PDH/hPDHK2 complex. The test compound was diluted with dimethyl sulfoxide (DMSO). PDH/hPDHK2 complex (20 μL), test compound (1.5 μL) and 3.53 μmol/L ATP (diluted with buffer, 8.5 μL) were added to a half area 96 well UV-transparent microplate (Corning 3679), and PDHK reaction was performed at room temperature for 45 min. Instead of the test compound, DMSO (1.5 μL) was added to a control well. DMSO (1.5 μL) was added instead of the test compound to a blank well for the measurement of the maximum rate of PDH reaction, and hPDHK2 was not added. Than, 10 μL of substrates (5 mmol/L sodium pyruvate, 5 mmol/L Coenzyme A, 12 mmol/L NAD, and 5 mmol/L thiamine pyrophosphate, diluted with buffer) was added. The mixture was incubated at room temperature for 90 min, and the residual PDH activity was measured. The absorbance at 340 nm before and after PDH reaction was measured on a microplate reader to detect NADH produced by the PDH reaction. The PDHK inhibitory rate (%) of the test compound was calculated from the formula [{(PDH activity of test compound—PDH activity of control)/PDH activity of blank—PDH activity of control)}×100]. The IC50 value was calculated from the concentrations of the test compound at two points enclosing 50% inhibition of the PDHK activity.

[1] = read-out: PDHK inhibitory activity IC50
[2] = PDHK inhibitory activity, class symbol of IC50
[3] = PDHK inhibitory activity (class symbol)

| SMILES | IC50 (class symbol of IC50, read-out: PDHK inhibitory activity) | IC50 [1] | IC50 [2] | IC50 [3] |
| --- | --- | --- | --- | --- |
| Cc1cc(C(=O)N2CCC2)cc2c1-c1ccccc1C2(O)C(F)(F)F (single isomer, unassigned) [compound 135] | > 1000 nM | > 1000 nM |  |  |
| Cc1cc(C(=O)N2CCC2)cc2c1-c1ccccc1C2(O)C(F)(F)F (single isomer, unassigned) [compound 136] |  | 25 nM | < 100 nM |  |
| Cc1cc(C(=O)N2CC(OCCO)C2)cc2c1-c1ccccc1C2(O)C(F)(F)F (single isomer, unassigned) [compound 152] |  | 54 nM | < 100 nM |  |
| COC(=O)COc1cc(Br)c2c(c1)C(O)(C(F)(F)F)c1ccccc1-2 (single isomer, unassigned) [compound 451, (4-bromo-9-hydroxy-9-trifluoromethyl-9H-fluoren-2-yloxy)-acetic acid methyl ester] |  | 102 nM | 100 to 1000 nM |  |
| COC(=O)COc1cc(Br)c2c(c1)C(O)(C(F)(F)F)c1ccccc1-2 (single isomer, unassigned) [compound 452] |  | 2720 nM | > 1000 nM |  |
| Cn1cc(-c2cc(OCC(N)=O)cc3c2-c2ccccc2C3(O)C(F)(F)F)cn1 (single isomer, unassigned) [compound 467] |  | 18 nM | < 100 nM |  |
| COC(=O)c1cc(Br)c2c(c1)C(O)(C(F)(F)F)c1ccccc1-2 (single isomer, unassigned) [compound 473] |  | 90 nM | < 100 nM |  |
| Cn1cc(-c2cc(OCC(=O)N3CC(CO)C3)cc3c2-c2ccccc2C3(O)C(F)(F)F)cn1 (single isomer, unassigned) [compound 474] |  | 19 nM | < 100 nM |  |
| Cn1cc(-c2cc(OCC(=O)N3CC(O)C3)cc3c2-c2ccccc2C3(O)C(F)(F)F)cn1 (single isomer, unassigned) [compound 475] |  | 20 nM | < 100 nM |  |
| NC(=O)COc1cc(-c2cnn(CCO)c2)c2c(c1)C(O)(C(F)(F)F)c1ccccc1-2 (single isomer, unassigned) [compound 477] |  | 18 nM | < 100 nM |  |
| O=C(O)CCCOc1cc(Cl)c2c(c1)C(O)(C(F)(F)F)c1ccccc1-2 (single isomer, unassigned) [compound 479] |  | > 10000 nM | > 1000 nM |  |
| COC(=O)COc1cc(Cl)c2c(c1)C(O)(C(F)(F)F)c1ccccc1-2 (single isomer, unassigned) [compound 481, (4-chloro-9-hydroxy-9-trifluoromethyl-9H-fluoren-2-yloxy)-acetic acid methyl ester] |  | 251 nM | 100 to 1000 nM |  |
| Cn1cc(-c2cc(OCCCC(=O)O)cc3c2-c2ccccc2C3(O)C(F)(F)F)cn1 (single isomer, unassigned) [compound 504, 4-[9-hydroxy-4-(1-methyl-1H-pyrazol-4-yl)-9-trifluoromethyl-9H-fluoren-2-yloxy]-butyric acid] |  | 19 nM | < 100 nM |  |
| Cn1cc(-c2cc(OCCC34CC5CC(CC(O)(C5)C3)C4)cc3c2-c2ccccc2C3(O)C(F)(F)F)cn1 (single isomer, unassigned) [compound 540] |  | 16 nM | < 100 nM |  |
| NC(=O)Cn1cc(-c2cc(OCCC34CC5CC(CC(O)(C5)C3)C4)cc3c2-c2ccccc2C3(O)C(F)(F)F)cn1 (single isomer, unassigned) [compound 541] |  | 15 nM | < 100 nM |  |
| OCCn1cc(-c2cc(OCCC34CC5CC(CC(O)(C5)C3)C4)cc3c2-c2ccccc2C3(O)C(F)(F)F)cn1 (single isomer, unassigned) [compound 542] |  | 15 nM | < 100 nM |  |
| Cn1cc(-c2cc(OCCCCC(=O)O)cc3c2-c2ccccc2C3(O)C(F)(F)F)cn1 (single isomer, unassigned) [compound 552] |  | 17 nM | < 100 nM |  |
| CC(C)n1cc(-c2cc(OCCCC(=O)O)cc3c2-c2ccccc2C3(O)C(F)(F)F)cn1 (single isomer, unassigned) [compound 553] |  | 18 nM | < 100 nM |  |

| SMILES | IC50 (class symbol of IC50, read-out: PDHK inhibitory activity) | IC50 [1] | IC50 [2] | IC50 [3] |
| --- | --- | --- | --- | --- |
| CCn1cc(-c2cc(OCCCC(=O)O)cc3c2-c2ccccc2C3(O)C(F)(F)F)cn1 (single isomer, unassigned) [compound 554] |  | 20 nM | < 100 nM |  |
| O=C(O)CCCOc1cc(-c2cccnc2)c2c(c1)C(O)(C(F)(F)F)c1ccccc1-2 (single isomer, unassigned) [compound 561] |  | 50 nM | < 100 nM |  |
| OC[C@@H](O)Cn1cc(-c2cc(F)cc3c2-c2ccccc2C3(O)C(F)(F)F)cn1 (single isomer, unassigned) [compound 565] |  | 18 nM | < 100 nM |  |
| OC[C@H](O)Cn1cc(-c2cc(F)cc3c2-c2ccccc2C3(O)C(F)(F)F)cn1 (single isomer, unassigned) [compound 566] |  | 21 nM | < 100 nM |  |
| Cn1cc(-c2cc(OCCCc3nnn[nH]3)cc3c2-c2ccccc2C3(O)C(F)(F)F)cn1 (single isomer, unassigned) [compound 573] |  | 18 nM | < 100 nM |  |
| Cc1cc(-c2cnn(C(C)(C)C(=O)O)c2)c2c(c1)C(O)(C(F)(F)F)c1ccccc1-2 (single isomer, unassigned) [compound 574] |  | 52 nM | < 100 nM |  |
| Cc1cc(-c2cnn(CC(C)(C)C(=O)O)c2)c2c(c1)C(O)(C(F)(F)F)c1ccccc1-2 (single isomer, unassigned) [compound 575] |  | 36 nM | < 100 nM |  |
| Cc1cc(-c2cnn(C(C)(C)CC(=O)O)c2)c2c(c1)C(O)(C(F)(F)F)c1ccccc1-2 (single isomer, unassigned) [compound 576] |  | 30 nM | < 100 nM |  |
| CC(CCOc1cc(-c2cnn(C)c2)c2c(c1)C(O)(C(F)(F)F)c1ccccc1-2)C(=O)O (single isomer, unassigned) [compound 577] |  | 23 nM | < 100 nM |  |
| CCOc1cc(-c2cnn(CCC(=O)O)c2)c2c(c1)C(O)(C(F)(F)F)c1ccccc1-2 (single isomer, unassigned) [compound 581] |  | 19 nM | < 100 nM |  |
| CCOc1cc(-c2cnn(CCCC(=O)O)c2)c2c(c1)C(O)(C(F)(F)F)c1ccccc1-2 (single isomer, unassigned) [compound 582] |  | 21 nM | < 100 nM |  |
| COc1cc(-c2cnn(CCC(=O)O)c2)c2c(c1)C(O)(C(F)(F)F)c1ccccc1-2 (single isomer, unassigned) [compound 588] |  | 29 nM | < 100 nM |  |
| COc1cc(-c2cnn(CCCC(=O)O)c2)c2c(c1)C(O)(C(F)(F)F)c1ccccc1-2 (single isomer, unassigned) [compound 589] |  | 25 nM | < 100 nM |  |
| O=C(O)CCCOc1cc(-c2cncnc2)c2c(c1)C(O)(C(F)(F)F)c1ccccc1-2 (single isomer, unassigned) [compound 604] |  | 35 nM |  | < 100 nM |
| Cc1cc(-c2cnn(C(CO)CO)c2)c2c(c1)C(O)(C(F)(F)F)c1ccccc1-2 (single isomer, unassigned) [compound 605] |  | 19 nM |  | < 100 nM |
| Cc1cc(-c2cnn(CCCCC(=O)O)c2)c2c(c1)C(O)(C(F)(F)F)c1ccccc1-2 (single isomer, unassigned) [compound 606] |  | 28 nM |  | < 100 nM |
| CC(C)(Cn1cc(-c2cc(F)cc3c2-c2ccccc2C3(O)C(F)(F)F)cn1)C(=O)O (single isomer, unassigned) [compound 607] |  | 45 nM |  | < 100 nM |
